# Entries after “also recorded” stand apart in the source; their conditions may differ.
# Columns and labels:
# bacteria = conditions: literature / earlier filings; cited from earlier work
# Serratia marcescens = test: MIC, standard serial dilution method; assay type: cell-based; conditions: Mueller-Hinton agar, 37° C
# Escherichia coli K-12 = test: MIC, standard serial dilution method; assay type: cell-based; conditions: K12; Escherichia coli K-12; Mueller-Hinton agar, 37° C; read-out: MIC
# Mycobacterium 607 = test: MIC, standard serial dilution method; assay type: cell-based; conditions: Mueller-Hinton agar, 37° C
# in vivo = conditions: mouse, iv, pH 7
# Text: Further, in order to estimate acute toxicity of the compound of the general formula (I) according to this invention, some examples of the compounds of this invention were independently dissolved in water to prepare aqueous solutions (as adjusted to pH 7 by addition of hydrochloric acid). […] The tested compounds of this invention are expressed by the same abbreviations as in Table 1. […] The comparative compounds as tested are also expressed by the same abbreviations as in Table 1.
# [1] = system: Pseudomonas aeruginosa GN 315; test: MIC, standard serial dilution method; assay type: cell-based; conditions: GN315; Pseudomonas aeruginosa GN 315; resistance mechanism AAC(6'); Mueller-Hinton agar, 37° C; read-out: MIC
# [2] = system: Staphylococcus aureus 209P; test: MIC, standard serial dilution method; assay type: cell-based; conditions: Mueller-Hinton agar, 37° C
# Proteus rettgeri GN 311 = test: MIC, standard serial dilution method; assay type: cell-based; conditions: Providencia rettgeri, GN311; Proteus rettgeri GN 311; Mueller-Hinton agar, 37° C; read-out: MIC
# Bacillus subtilis PCI219 = test: MIC, standard serial dilution method; assay type: cell-based; conditions: Mueller-Hinton agar, 37° C
# [3] = system: Staphylococcus aureus Ap01; test: MIC, standard serial dilution method; assay type: cell-based; conditions: resistance mechanism ANT(4'), Mueller-Hinton agar, 37° C
# [4] = system: Escherichia coli JR66/W677; test: microbe, parasite or virus in culture; assay type: cell-based; conditions: resistance mechanism APH(3')-II, ANT(2"), Mueller-Hinton agar, 37° C
# [5] = system: Escherichia coli K-12 LA 290 R55; test: microbe, parasite or virus in culture; assay type: cell-based; conditions: K12LA290R55; Escherichia coli K-12 LA 290 R55; resistance mechanism ANT(2"); Mueller-Hinton agar, 37° C
# Providencia sp. Pv 16 = test: MIC, standard serial dilution method; assay type: cell-based; conditions: SP.PV16, resistance mechanism AAC(2'), Mueller-Hinton agar, 37° C
# [6] = system: Pseudomonas aeruginosa A3; test: MIC, standard serial dilution method; assay type: cell-based; conditions: Mueller-Hinton agar, 37° C
# [7] = system: Klebsiella pneumoniae 22#3038; test: MIC, standard serial dilution method; assay type: cell-based; conditions: resistance mechanism APH(3')-II, ANT(2"), Mueller-Hinton agar, 37° C
# [8] = system: Corynebacterium bovis 1810; test: MIC, standard serial dilution method; assay type: cell-based; conditions: Mueller-Hinton agar, 37° C
# [9] = system: Escherichia coli K-12 ML 1629; test: microbe, parasite or virus in culture; assay type: cell-based; conditions: K12ML1629; Escherichia coli K-12 ML 1629; resistance mechanism APH(3')-I; Mueller-Hinton agar, 37° C; read-out: MIC
# Escherichia coli K-12 R5 = test: microbe, parasite or virus in culture; assay type: cell-based; conditions: K12R5; Escherichia coli K-12 R5; resistance mechanism AAC(6'); Mueller-Hinton agar, 37° C
# Escherichia coli JR225 = test: microbe, parasite or virus in culture; assay type: cell-based; conditions: resistance mechanism AAC(3), Mueller-Hinton agar, 37° C
structure (smiles),measurement,setting,value
"NC[C@H]1O[C@H](O[C@H]2[C@H](O)[C@@H](O[C@H]3O[C@H](CO)[C@H](F)[C@H](N)[C@H]3O)[C@H](N)C[C@@H]2N)[C@H](O)[C@@H](O)[C@@H]1O [4""-deoxy-4""-fluoro-4""-epi-kanamycin A]",antibacterial activity compared with parent (e.g. kanamycin A),bacteria,lower than that of kanamycin A
NC[C@H]1O[C@H](O[C@H]2[C@H](O)[C@@H](O[C@H]3O[C@H](CO)[C@@H](O)[C@H](N)[C@H]3O)[C@H](N)C[C@@H]2N)[C@H](N)[C@@H](F)[C@@H]1O [3'-deoxy-3'-fluorokanamycin B],antibacterial activity compared with parent (e.g. kanamycin A),bacteria,"improved antibacterial activities, as compared to those of their corresponding parent compounds; also recorded: remarkable antibacterial activities against various gram-positive and gram-negative bacteria, including the resistant bacteria"
NC[C@H]1O[C@H](O[C@H]2[C@H](O)[C@@H](O[C@H]3O[C@H](CO)[C@@H](O)[C@H](N)[C@H]3O)[C@H](N)C[C@@H]2N)[C@H](O)[C@@H](F)[C@@H]1O [3'-deoxy-3'-fluorokanamycin A],antibacterial activity compared with parent (e.g. kanamycin A),bacteria,"improved antibacterial activities, as compared to those of their corresponding parent compounds"
"NC[C@H]1O[C@H](O[C@H]2[C@H](O)[C@@H](O[C@H]3O[C@H](CF)[C@@H](O)[C@H](N)[C@H]3O)[C@H](N)C[C@@H]2N)[C@H](O)[C@@H](O)[C@@H]1O [6""-deoxy-6""-fluorokanamycin A]",antibacterial activity compared with parent (e.g. kanamycin A),bacteria,antibacterial activities substantially as high as that of kanamycin A
"NC[C@@H]1C[C@H](F)[C@@H](N)[C@@H](O[C@H]2[C@H](O)[C@@H](O[C@H]3O[C@H](CO)[C@@H](O)[C@H](N)[C@H]3O)[C@H](N)C[C@@H]2N)O1 [3',4'-dideoxy-3'-fluorokanamycin B]",antibacterial activity compared with parent (e.g. kanamycin A),bacteria,"improved antibacterial activities, as compared to those of their corresponding parent compounds"
"NC[C@H]1O[C@H](O[C@H]2[C@H](O)[C@@H](O[C@H]3O[C@H](CO)[C@@H](O)[C@H](N)[C@H]3O)[C@H](N)C[C@@H]2N)[C@H](F)C[C@@H]1O [2',3'-dideoxy-2'-fluorokanamycin A]",antibacterial activity compared with parent (e.g. kanamycin A),bacteria,"improved antibacterial activities, as compared to those of their corresponding parent compounds"
"NC[C@H]1O[C@H](O[C@H]2[C@@H](F)[C@@H](O[C@H]3O[C@H](CO)[C@H](O)[C@H](N)[C@H]3O)[C@H](N)C[C@@H]2N)[C@H](O)[C@@H](O)[C@@H]1O [5-deoxy-5-fluoro-5,4""-di-epi-kanamycin A]",antibacterial activity compared with parent (e.g. kanamycin A),bacteria,antibacterial activities substantially as high as that of kanamycin A
"NC[C@H]1O[C@H](O[C@H]2[C@@H](F)[C@@H](O[C@H]3O[C@H](CF)[C@@H](O)[C@H](N)[C@H]3O)[C@H](N)C[C@@H]2N)[C@H](O)[C@@H](O)[C@@H]1O [5,6""-dideoxy-5,6""-difluoro-5-epi-kanamycin A]",antibacterial activity compared with parent (e.g. kanamycin A),bacteria,antibacterial activities substantially as high as that of kanamycin A
"NCC[C@H](O)C(=O)N[C@@H]1C[C@H](N)[C@@H](O[C@H]2O[C@H](CN)[C@@H](O)[C@H](O)[C@H]2O)C(F)(F)[C@H]1O[C@H]1O[C@H](CO)[C@@H](O)[C@H](N)[C@H]1O [Compound 5FF-amikacin, 1-N-[(S)-4-amino-2-hydroxybutyryl]-5-deoxy-5,5-difluorokanamycin A]",MIC,Serratia marcescens,6.25 µg/mL
same,MIC,Escherichia coli K-12,1.56 µg/mL
same,MIC,Mycobacterium 607,3.12 µg/mL
same,LD50,in vivo,> 300 mg/kg
same,MIC,[1],> 100 µg/mL
same,MIC,[2],3.12 µg/mL
same,MIC,Proteus rettgeri GN 311,1.56 µg/mL
same,MIC,Bacillus subtilis PCI219,1.56 µg/mL
same,MIC,[3],> 100 µg/mL
same,MIC,[4],3.12 µg/mL
same,MIC,[5],3.12 µg/mL
same,MIC,Providencia sp. Pv 16,3.12 µg/mL
same,MIC,[6],3.12 µg/mL
same,MIC,[7],6.25 µg/mL
same,MIC,[8],3.12 µg/mL
same,MIC,[9],3.12 µg/mL
same,MIC,Escherichia coli K-12 R5,25 µg/mL
same,MIC,Escherichia coli JR225,0.39 µg/mL
